Data: paper PMC9822021, “Biological Activity of Amidino-Substituted Imidazo [4,5-b]pyridines” (Molecules, 2022)
Converted amounts (≈) assume the structure as drawn.

How the values were obtained:
[1] = system: Capan-1 pancreatic adenocarcinoma cells; test: In vitro antiproliferative activity, MTS proliferation assay; type: cell-based; details: Homo sapiens, 72 h
Procedure: (§1) Culture media were purchased from Gibco Life Technologies, USA, and supplemented with 10% fetal bovine serum (HyClone, GE Healthcare Life Sciences, Chicago, IL, USA), except for the media for SW620, PC3 and HeLa cells, which were purchased from Sigma.
(§2) Cells were incubated for 72 h with compounds and were then analyzed using the CellTiter 96® AQueous One Solution Cell Proliferation Assay (MTS) reagent (Promega) according to the manufacturer’s instructions. […] Compounds were tested in two independent experiments. SW620, PC3 and HeLa cells were seeded in 96-well microtiter plates at 1 × 10^4 to 3 × 10^4 cells/mL, depending on the doubling times of the specific cell line. Test agents were then added in five 10-fold dilutions (10^−8 to 10^−4 M). Working dilutions were freshly prepared on the day of testing. After 72 h of incubation, the cell growth rate was evaluated using the MTT assay as described previously. […] Each test was performed in quadruplicate in at least two individual experiments.

[2] = system: DND-41 acute lymphoblastic leukemia cells; test: as above; type: cell-based; details: Homo sapiens, DND41, 72 h
Procedure: as §1, §2

[3] = system: HL-60 acute myeloid leukemia cells; test: as above; type: cell-based; details: Homo sapiens, 72 h
Procedure: as §1, §2

[4] = system: LN-229 glioblastoma cells; test: as above; type: cell-based; details: Homo sapiens, 72 h
Excerpt: (§3) Human cancer cell lines used in this manuscript, namely Capan-1, HCT-116, NCI-H460, LN-229, HL-60, K-562, Z-138, SW620, PC3 and HeLa, were acquired from the American Type Culture Collection (ATCC, Manassas, VA, USA), while the DND-41 cell line was purchased from the Deutsche Sammlung von Mikroorganismen und Zellkulturen (DSMZ Leibniz-Institut, Germany). Culture media were purchased from Gibco Life Technologies, USA, and supplemented with 10% fetal bovine serum (HyClone, GE Healthcare Life Sciences, Chicago, IL, USA), except for the media for SW620, PC3 and HeLa cells, which were purchased from Sigma.
(§4) Adherent cell lines LN-229, HCT-116, NCI-H460 and Capan-1 cells were seeded at a density between 500 and 1500 cells per well in 384-well tissue culture plates (Greiner). […]. Cells were incubated for 72 h with compounds and were then analyzed using the CellTiter 96® AQueous One Solution Cell Proliferation Assay (MTS) reagent (Promega) according to the manufacturer’s instructions. Absorbance of the samples was measured at 490 nm using a SpectraMax Plus 384 (Molecular Devices), and OD values were used to calculate the 50% inhibitory concentration (IC50). Compounds were tested in two independent experiments. SW620, PC3 and HeLa cells were seeded in 96-well microtiter plates at 1 × 10^4 to 3 × 10^4 cells/mL, depending on the doubling times of the specific cell line. Test agents were then added in five 10-fold dilutions (10^−8 to 10^−4 M). Working dilutions were freshly prepared on the day of testing. After 72 h of incubation, the cell growth rate was evaluated using the MTT assay as described previously. Absorbance of the samples was measured at 570 nm, and OD values were used to calculate the 50% inhibitory concentration (IC50). Each test was performed in quadruplicate in at least two individual experiments.

[5] = system: NCI-H460 lung carcinoma cells; test: as above; type: cell-based; details: Homo sapiens, 72 h
Excerpt: as §3, §4

[6] = system: HCT-116 colorectal carcinoma cells; test: as above; type: cell-based; details: Homo sapiens, 72 h
Excerpt: as §3, §4

[7] = system: K-562 chronic myeloid leukemia cells; test: as above; type: cell-based; details: Homo sapiens, K562, 72 h
Excerpt: as §3, §4

in vitro [8] = details: dog
S. aureus ATCC 29213 = test: Antibacterial activity in vitro, broth microdilution; type: cell-based; details: Staphylococcus aureus, ATCC29213; broth microdilution (CLSI), 16–24 h at 37 °C
Procedure: (§5) Synthesized compounds were prepared as 10 mM DMSO solutions and tested in a final concentration range of 100–0.2 µM [34].
(§6) Broth microdilution testing was performed according to CLSI (Clinical Laboratory Standards Institute) guidelines. MIC (minimal inhibitory concentration) values were defined as the last tested concentration of the compound at which there was no visible growth of bacteria. Inoculums for each microorganism were prepared using the direct colony suspension method, where broth solutions that achieved turbidity equivalent to 0.5 McFarland standard were additionally diluted 100× with Ca-adjusted MH media (Becton Dickinson).

E. coli ATCC 25922 = test: as above; type: cell-based; details: Escherichia coli, ATCC25922; broth microdilution (CLSI), 16–24 h at 37 °C
Procedure: as §5, §6

S. Pneumoniae ATCC 49619 = test: as above; type: cell-based; details: Streptococcus pneumoniae, ATCC49619; broth microdilution (CLSI), 16–24 h at 37 °C
Procedure: as §5, §6

E. coli Efflux Del = test: microbe, parasite or virus in culture; type: cell-based; details: Escherichia coli, read-out: MIC E. coli Efflux Del
Procedure: as §5, §6

[9] = system: HeLa cervical carcinoma cells; test: In vitro antiproliferative activity, MTT assay; type: cell-based; details: Homo sapiens, 72 h
Excerpt: as §3, §4

[10] = system: PC3 prostate carcinoma cells; test: In vitro antiproliferative activity, MTT assay; type: cell-based; details: Homo sapiens, 72 h
Excerpt: as §3, §4

[11] = system: SW620 colon carcinoma cells; test: In vitro antiproliferative activity, MTT assay; type: cell-based; details: Homo sapiens, SW-620, 72 h
Excerpt: as §3, §4

[12] = system: Z-138 non-Hodgkin lymphoma cells; test: In vitro antiproliferative activity, MTS proliferation assay; type: cell-based, human; details: Homo sapiens, Z-138, 72 h
Excerpt: as §3, §4

in vitro [13] = details: human
in vitro [14] = details: human; remark: listed apart in the source

SMILES | IC50 [1] [µM] | IC50 [2] [µM] | IC50 [3] [µM] | IC50 [4] [µM] | IC50 [5] [µM] | IC50 [6] [µM] | IC50 [7] [µM] | CC50 (in vitro [8]) [µM] | MIC (S. aureus ATCC 29213) [µM] | MIC (E. coli ATCC 25922) [µM] | MIC (S. Pneumoniae ATCC 49619) [µM] | melting point [°C] | MIC (E. coli Efflux Del) [µM] | IC50 [9] [µM] | IC50 [10] [µM] | IC50 [11] [µM] | IC50 [12] [µM] | CC50 (in vitro [13]) [µM] | CC50 (in vitro [14]) [µM]
CC(C)NC(=N)c1ccc(-c2nc3ncc(Br)cc3[nH]2)cc1.Cl [Compound 16, 4-(6-Bromo-1H-imidazo[4,5-b]pyridin-2-yl)-N-isopropylbenzimidamide Hydrochloride] | 52.7 ± 2.9 | 11.9 ± 0.1 | 91.4 ± 5.1 | 52.4 ± 8.1 | > 100 | 77.2 ± 19.1 | 53.6 ± 2.8 | 71.2 ± 40.8 | > 64 | > 64 | > 64 | > 300 | > 64 | 13.3 ± 4.3 | 13.3 ± 2.6 | 7.4 ± 1.1 | 12.1 ± 0.8 | – | –
Cn1c(-c2ccc(C#N)cc2)nc2cc(Br)cnc21 [Compound 19, 4-(6-Bromo-3-methyl-3H-imidazo[4,5-b]pyridin-2-yl)benzonitrile] | > 100 | > 100 | > 100 | > 100 | > 100 | > 100 | > 100 | > 100 | > 64 | > 64 | > 64 | 234 to 235 | > 64 | 26.1 ± 0.01 | 28.8 ± 15 | 63.8 ± 7.4 | > 100 | > 100 | > 100
CC1(C)S[C@@H]2[C@H](NC(=O)[C@H](N)c3ccccc3)C(=O)N2[C@H]1C(=O)O [Ampicillin, ampicillin, reference compound] | – | – | – | – | – | – | – | – | 1 (≈ 0.349 µg/mL) | 1 (≈ 0.349 µg/mL) | < 0.125 | – | – | – | – | – | – | – | –
Cl.c1cnc2nc(-c3ccc(C4=NCCCN4)cc3)[nH]c2c1 [Compound 12, 2-(4-(1H-Imidazo[4,5-b]pyridin-2-yl)phenyl)-3,4,5,6-tetrahydropyrimidin-1-ium Chloride] | > 100 | > 100 | > 100 | > 100 | > 100 | > 100 | > 100 | > 100 | > 64 | > 64 | > 64 | > 300 | > 64 | > 100 | > 100 | > 100 | > 100 | > 100 | > 100
CN[C@@H]1C[C@H]2O[C@@](C)([C@@H]1OC)n1c3ccccc3c3c4c(c5c6ccccc6n2c5c31)C(=O)NC4 [STS, staurosporine, reference compound] | – | – | – | 0.0668 ± 0.016 | 0.0448 ± 0.004 | 0.0701 ± 0.006 | 0.0374 ± 0.006 | – | – | – | – | – | – | – | – | – | 0.0484 ± 0.007 | – | –
COc1cc([C@@H]2c3cc4c(cc3[C@@H](O[C@@H]3O[C@@H]5CO[C@@H](C)O[C@H]5[C@H](O)[C@H]3O)[C@H]3COC(=O)[C@H]23)OCO4)cc(OC)c1O [etoposide, reference compound] | – | – | – | – | – | – | – | – | – | – | – | – | – | 0.004 ± 0.001 | 11.6 ± 1.9 | 0.63 ± 0.1 | – | – | –
CC(=O)O[C@@]12CO[C@@H]1C[C@H](O)[C@@]1(C)C(=O)[C@H](O)C3=C(C)[C@@H](OC(=O)[C@H](O)[C@@H](NC(=O)OC(C)(C)C)c4ccccc4)C[C@@](O)([C@@H](OC(=O)c4ccccc4)[C@H]21)C3(C)C [DTX, docetaxel, reference compound] | 0.0038 ± 0.003 | 0.0025 | 0.0022 | 0.0041 ± 0.003 | 0.0034 | 0.0025 | 0.0085 ± 0.001 | – | – | – | – | – | – | – | – | – | 0.0023 | – | –
COc1cccc2c1C(=O)c1c(O)c3c(c(O)c1C2=O)C[C@@](O)(C(=O)CO)C[C@@H]3O[C@H]1C[C@H](N)[C@H](O)[C@H](C)O1 [doxorubicine, reference compound] | – | – | – | – | – | – | – | – | – | – | – | – | – | 0.16 ± 0.05 | 0.13 ± 0.02 | 0.02 | – | – | –
N#Cc1ccc(-c2nc3ncccc3[nH]2)cc1 [Compound 6, 4-(1H-Imidazo[4,5-b]pyridin-2-yl)benzonitrile] | > 100 | > 100 | > 100 | > 100 | > 100 | > 100 | > 100 | > 100 | > 64 | > 64 | > 64 | – | > 64 | 28.9 ± 7.2 | > 100 | > 100 | > 100 | > 100 | > 100
C[C@@H](O)[C@H]1C(=O)N2C(C(=O)O)=C(S[C@@H]3CN[C@H](C(=O)N(C)C)C3)[C@H](C)[C@H]12 [Meropenem, meropenem, reference compound] | – | – | – | – | – | – | – | – | < 0.125 | < 0.125 | < 0.125 | – | < 0.125 | – | – | – | – | – | –
CC(C)(O/N=C(\C(=O)N[C@@H]1C(=O)N2C(C(=O)[O-])=C(C[n+]3ccccc3)CS[C@H]12)c1csc(N)n1)C(=O)O [Ceftazidime, ceftazidime, reference compound] | – | – | – | – | – | – | – | – | 16 (≈ 8.75 µg/mL) | 0.25 (≈ 0.137 µg/mL) | 0.25 (≈ 0.137 µg/mL) | – | 0.25 (≈ 0.137 µg/mL) | – | – | – | – | – | –
